Common to all, as to experiment: growth of human tumour cells (NCI), 48 h
In test [1] the test system is M14.
For test [2], the system named is HCT-15.
Test [3] deals with RPMI-8226.
Test [4] relates to U-251.
For test [5], the system named is MDA-MB-435.
Test [6] relates to HCC 2998.
In test [7] the test system is NCI-H522.
In test [8] the test system is HOP-92.
The test system of test [9] is MOLT-4.
Test [10] deals with HOP-62.
The test system of test [11] is NCI-H226.
Test [12] has as its system Malme-3M.
Test [13] has as its system LOX IMVI.
For test [14], the system named is T47D.
Test [15] relates to SK-MEL-2.
Test [16] deals with EKVX.
For test [17], the system named is UACC-257.
In test [18] the test system is SNB-75.
Test [19] relates to CAKI-1.

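Where inhibition never reached the appropriate level, the endpoint shown equals the highest concentration tested. Otherwise, values were interpolated linearly from a five-concentration, 48-hour dose response in 96-well plates. GI50 is the concentration that inhibits growth by half.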 Active and inactive are the calls of the source. Rule as the data show it: active = GI50 up to about 1.1 µM and inactive = higher. Some results are limits rather than exact numbers.

Consider `O=C(O)CCCc1ccc2c(c1)CC1(C2)Cc2cc3c(cc2C1)CCCC3`, for which the GI50 in test [1] was 15.2 µM (inactive); in test [2], 8.3 µM; in [3] it was 28 µM (inactive); in [4], 16.7 µM (inactive); in [5], 17.3 µM (inactive); in [6] it was 19.8 µM (inactive). Also, the GI50 in test [7] was 19.2 µM (inactive); in test [8] it was 23.7 µM (inactive); in [9] it was 1.52 µM (inactive); in [10] it was 1.98 µM (inactive); in [11], 31.6 µM (inactive); in [12], 22 µM (inactive). Further, the GI50 is 17.7 µM (inactive) in [13]; 35.6 µM (inactive) in test [14]; 17.5 µM (inactive) in test [15]; > 100 µM (inactive) in test [16]; 37.7 µM (inactive) in test [17].
On to `Oc1ccc[nH]c1=[Se]`, for which the GI50 was 47.6 µM (inactive) in [1]; 44.4 µM in test [2]; 40.6 µM (inactive) in [3]; 32.7 µM (inactive) in test [4]; 41.8 µM (inactive) in test [5]; 29.6 µM (inactive) in [7]. Also, the GI50 in test [8] was > 100 µM (inactive); in test [9] it was > 100 µM (inactive); in test [18], 92.3 µM (inactive); in test [10], 29.1 µM (inactive); in [11], > 100 µM (inactive); in test [12], 50.1 µM (inactive). For the same compound, the GI50 in [13] was 64.6 µM (inactive); in test [14], 22.4 µM (inactive); in test [15], > 100 µM (inactive); in test [19] it was 69.7 µM (inactive); in [16], 25.8 µM (inactive); in test [17], > 100 µM (inactive).
For `CC(=O)OC(C)(C)CCC(=O)[C@](C)(O)[C@H]1[C@H](O)C[C@@]2(C)[C@@H]3CCc4c(cc(OC5OC(CO)C(O)C(O)C5O)c(O)c4C)C3(C)C(=O)C[C@]12C` (stereo not given in full), the GI50 in test [1] was > 100 µM (inactive); in test [2], greater than 100 µM; in test [4], > 100 µM (inactive); in test [5] it was > 100 µM (inactive); in test [6] it was > 100 µM (inactive); in test [7], > 100 µM (inactive). Besides, the GI50 in test [8], in [9], in [18], in test [10], in [11] and in test [12] was > 100 µM (inactive) throughout. For the same compound, the GI50 in [13], in [14], in test [15], in test [19], in test [16] and in test [17] was > 100 µM (inactive) in each case.
Take `O=C(Nc1ccccc1)c1cc(S(=O)(=O)N2CCNC2=O)c(S)cc1Cl`: the GI50 was > 100 µM (inactive) in [1]; greater than 100 µM in test [2]; > 100 µM (inactive) in test [3]; > 100 µM (inactive) in [4]; > 100 µM (inactive) in [5]; > 100 µM (inactive) in test [6]. Besides, the GI50 was 23.2 µM (inactive) in test [7]; > 100 µM (inactive) in test [8]; > 100 µM (inactive) in [9]; > 100 µM (inactive) in test [18]; > 100 µM (inactive) in test [10]; > 100 µM (inactive) in [13]. Moreover, the GI50 was > 100 µM (inactive) in [14]; > 100 µM (inactive) in test [15]; 36.6 µM (inactive) in test [19]; > 100 µM (inactive) in [16]; > 100 µM (inactive) in [17].
Regarding `COC(=O)c1ccccc1/C=C1/Cc2ccccc2C1=O`, the GI50 in test [2] is 23.4 µM; in test [3] it was 22 µM (inactive); in [4] it was 29.7 µM (inactive); in [5], > 100 µM (inactive); in [6], > 100 µM (inactive); in [7], 31.7 µM (inactive). Further, the GI50 in [8] is 61.1 µM (inactive); in test [9] it was 24.4 µM (inactive); in test [18], > 100 µM (inactive); in test [10], 98.4 µM (inactive); in test [11], 63.8 µM (inactive); in [12], 50.5 µM (inactive). In addition, the GI50 was 17.8 µM (inactive) in test [13]; 19.6 µM (inactive) in [14]; 25.8 µM (inactive) in [19]; 63.2 µM (inactive) in test [16]; 24 µM (inactive) in test [17].
`Cc1cccc2c1Oc1cc(Cl)ccc1C2NC(=O)CCN1CCN(CCO)CC1` (stereo not given): the GI50 in test [1] was 15.5 µM (inactive); in test [2], 18.4 µM; in test [4], 15.1 µM (inactive); in test [5] it was 14 µM (inactive); in test [6], 28.6 µM (inactive); in [7], 11.1 µM (inactive). The GI50 in [8] was 10.7 µM (inactive); in test [9] it was 14.4 µM (inactive); in [18] it was 4.61 µM (inactive); in [10] it was 17.2 µM (inactive); in [13], 2.75 µM (inactive); in test [14], 17.4 µM (inactive). In addition, the GI50 in [16] is 20.8 µM (inactive); in [17] it was 16.6 µM (inactive).
Turning to `CC1(C)OC(CP(c2ccccc2)c2ccccc2)C(CP(c2ccccc2)c2ccccc2)O1` (stereo not given), the GI50 in test [1] is 1.79 µM (inactive); in [2], 3.22 µM; in test [3], 1.17 µM (inactive); in test [4] it was 0.191 µM (active); in [5], 2.16 µM (inactive); in [6], 0.774 µM (active). The GI50 in test [7] is 0.298 µM (active); in test [8], 2.36 µM (inactive); in test [9], 0.254 µM (active); in [18], 1.36 µM (inactive); in [10], 0.418 µM (active); in test [12], 1.99 µM (inactive). The GI50 is 0.224 µM (active) in test [13]; 0.345 µM (active) in test [14]; 1.81 µM (inactive) in test [15]; 2.92 µM (inactive) in test [19]; 0.914 µM (active) in test [16].
As for `CO[C@@H]1C[C@H]2[C@@H]3CC[C@H]([C@@H](C)CO)[C@@]3(C)CC[C@@H]2[C@@]2(C)CC[C@H]3C[C@]312`, the GI50 in test [1] was 23.3 µM (inactive); in test [2] it was 33.3 µM; in test [3] it was 25 µM (inactive); in test [4], 14.6 µM (inactive); in test [5], 27.5 µM (inactive); in test [6], 33.1 µM (inactive). The GI50 in [7] is 19.7 µM (inactive); in test [8], 18.9 µM (inactive); in test [9] it was 31.1 µM (inactive); in test [18] it was 74.3 µM (inactive); in test [10] it was 46.8 µM (inactive); in test [11], 24.4 µM (inactive). Besides, the GI50 in test [12] was 19.5 µM (inactive); in test [13] it was 19.3 µM (inactive); in [14], 20 µM (inactive); in [19], 89.7 µM (inactive); in test [16], 27.2 µM (inactive); in [17], 34 µM (inactive).
As to `c1nc(NCCc2c[nH]cn2)c2nc[nH]c2n1`, the GI50 is > 100 µM (inactive) in test [1]; greater than 100 µM in test [2]; > 100 µM (inactive) in test [3]; > 100 µM (inactive) in [4]; > 100 µM (inactive) in test [5]; > 100 µM (inactive) in test [7]. The GI50 in [8] was > 100 µM (inactive); in test [9], > 100 µM (inactive); in test [18] it was 64.3 µM (inactive); in [10], > 100 µM (inactive); in [11], 91.6 µM (inactive); in test [12], > 100 µM (inactive). Further, the GI50 is > 100 µM (inactive) in [13]; > 100 µM (inactive) in test [14]; > 100 µM (inactive) in [15]; > 100 µM (inactive) in test [19]; 46.2 µM (inactive) in test [16]; > 100 µM (inactive) in [17].
On to `C[C@]12CC[C@H]3[C@@H](CC=C4C[C@@H](N5CCCC5)CC[C@@]43C)[C@@H]1C[C@H](N1CCCCC1)[C@@H]2O`, for which the GI50 in [1] is 20.3 µM (inactive); in [2] it was 33.8 µM; in [3], 26.8 µM (inactive); in test [4], > 100 µM (inactive); in test [5], 45.4 µM (inactive); in [6] it was 31.6 µM (inactive). For the same compound, the GI50 in [7] is > 100 µM (inactive); in test [8], 83.8 µM (inactive); in test [9] it was > 100 µM (inactive); in [18], > 100 µM (inactive); in test [10] it was > 100 µM (inactive); in test [11] it was > 100 µM (inactive). For the same compound, the GI50 in test [12] was 42.5 µM (inactive); in [13] it was 33.3 µM (inactive); in test [14] it was > 100 µM (inactive); in test [19], > 100 µM (inactive); in test [16], > 100 µM (inactive); in [17], 23.3 µM (inactive).
For `C/C(=N\O)c1ccc(OCc2cc(C(F)(F)F)cc(C(F)(F)F)c2)cc1`, the GI50 in test [1] is 41 µM (inactive); in test [2] it was 30.5 µM; in test [4], 34.4 µM (inactive); in test [5], 43.8 µM (inactive); in [6], 32.1 µM (inactive); in test [7], 38.1 µM (inactive). The GI50 was 17.6 µM (inactive) in [8]; 14.3 µM (inactive) in test [9]; 51.9 µM (inactive) in test [18]; 50.1 µM (inactive) in [10]; 40.6 µM (inactive) in test [11]; 41 µM (inactive) in test [12]. For the same compound, the GI50 in test [13] is 39 µM (inactive); in test [14], 75.3 µM (inactive); in test [15], 57.1 µM (inactive); in test [19], 78.2 µM (inactive); in test [16], 78.5 µM (inactive); in test [17], 38.5 µM (inactive).

Values taken from ChEMBL document CHEMBL1201862, “PubChem BioAssay data set” (2004).
